What was measured:
steroid 5α-reductase [1] = details: cited from earlier work; for Anti-androgenic activity by inhibitory effects on steroid 5α-reductase activity: laboratory animals
[2] = in vivo; cited from earlier work
[3] = test system: testosterone-stimulated flank organs; test: Effect on testosterone-stimulated flank organs in the castrated hamster (topical); format: in vivo; details: for Flank Organ Cholest., Mean ± S.E. / Flank Organ Diameter, Mean ± S.E. / Flank Organ Wet Wgt, Mean ± S.E. / Flank Organ Develop. (Med. Score): topical; for Flank Organ Cholest., Mean ± S.E. / Flank Organ Diameter, Mean ± S.E. / Flank Organ Wet Wgt, Mean ± S.E.: 14 times over 2 weeks; for Inhibition of testosterone-stimulated increase in the cholesterol contact of the flank organs (in words) / Reduction of testosterone-stimulated increase in flank organ diameter (in words) / Suppression of flank organ development, degree of pigmentation (in words) / Wet weight of the flank organs (in words): topical with 1 μg TP; for Flank Organ Develop. (Med. Score): degree of pigmentation, score 0 to 4, 2 weeks
Method: (§1) The effect of 17α-(n-propyl)androst-4-en-17β -ol-3-one and 17α-(n-butyl)androst-4-en-17β -ol-3-one on testosterone-stimulated flank organs and on endocrine organs in the castrated hamster was determined as follows:
(§2) Castrated hamsters were treated on both flank organs topically with testosterone propionate (TP) equivalent to 1 microgram of testosterone with or without the test agents dissolved in 5 microliters of absolute ethanol 14 times over a 2 weeks period. The hamsters were 4-5 weeks of age (55 to 75 grams body weight) and were caged individually. After the end of the two-weeks period, the development (degree of pigmentation) and diameter of the flank organs were assessed and measured, and the flank organs were punched out with an 8 mm cork borer for determination of wet weight and cholesterol content. Endocrine organ weights (adrenal gland, seminal vesicle and thymus gland) were also determined.
In the first table TP refers to testosterone propionate, Compd. I refers to 17α-(n-propyl)androst-4-en-17β -ol-3-one, Compd. II refers to 17α-(n-butyl)androst-4-en-17β -ol-3-one, and n refers to the number of animals in each group.

[4] = test system: endocrine organs (adrenal gland, seminal vesicle and thymus gland); test: Endocrine organ weights in the castrated hamster after topical treatment; format: in vivo; details: for Endocr. Organ Wgts, Mean ± S.E.: Adrenal Gland / Endocr. Organ Wgts, Mean ± S.E.: Seminal Vesicle / Endocr. Organ Wgts, Mean ± S.E.: Thymus Gland: topical, 2 weeks; for Weights of the endocrine organs (in words): topical application, castrated hamsters
Method: as §1, §2

[5] = test system: flank organ sebaceous glands; test: Daily topical application to normal, sexually mature male hamsters; format: in vivo, hamster; details: 200 μg daily, 6 weeks
steroid 5α-reductase [6] = test: Inhibition of conversion of testosterone to dihydrotestosterone, minced hamster flank organ, tritiated testosterone; format: biochemical
Method: The effectiveness of 17α-(n-propyl)androst-4-en-17β -ol-3-one in inhibiting the conversion of testosterone dihydrotestosterone by the enzyme steroid 5α-reductase was measured using minced hamster flank organ as a source of the enzyme and tritiated testosterone as a substrate. At concentrations of one-hundredth molar and one-thousandth molar, 17α-(n-propyl)androst-4-en-17β -ol-3-one was 100% and 53% inhibitory, respectively.

[7] = Standard test procedures for androgenic, estrogenic or anabolic properties; format: in vivo
[8] = Progestational activity (Clauberg assay); format: in vivo
Method: When 17α-(n-propyl)androst-4-en-17β -ol-3-one was administered intramuscularly, its progestational activity was about one-fortieth that of progesterone.

[9] = Serum testosterone levels after topical application to sexually mature hamsters; format: in vivo, hamster; details: 200 μg per flank organ topically, 3 weeks
Method: When 17α-(n-propyl)androst-4-en-17β -ol-3-one was topically applied to sexually mature hamsters at 200 μg per flank organ for a period of 3 weeks, serum testosterone levels were unchanged compared with untreated controls.

[10] = Subcutaneous and oral toxicity (LD50) in the mouse; details: in vivo
From the text: (§3) 17α-(n-Propyl)androst-4-en-17β -ol-3-one is conveniently prepared by a three-step synthesis from 3β -acetoxyandrost-5-en-17-one in an over-all yield of 43%. The first step is a Grignard reaction with allylmagnesium bromide to give 17α-allylandrost-5-ene-3β,17β-diol in 81% yield. The second step is a hydrogenation over 10% palladium-on-carbon catalyst to afford 17α-propylandrost-5-ene-3β, 17β-diol in 88% yield. The third step is an Oppenauer oxidation with aluminum isopropoxide to give the desired 17α-(n-propyl)androst-4-en-17β -ol-3-one in 60.5% yields.

[11] = Subcutaneous and oral toxicity (LD50) in the rat; details: in vivo
From the text: as §3

acne or sebum secretion = details: tried topically; cited from earlier work
[12] = 200 μg topically with 1 μg testosterone propionate, castrated hamsters
[13] = castrated hamsters, 1 μg TP + 100 μg test compound
[14] = castrated hamsters, 1 μg TP + 200 μg test compound
[15] = Group III: 1 μg TP + 100 μg test compound
[16] = Groups IV, V: 1 μg TP + 200 μg test compound
[17] = oral, read-out: Oral toxicity (LD50)
[18] = sc, subcutaneous, read-out: Subcutaneous toxicity (LD50)
[19] = castrated hamsters, 1 μg TP alone

SMILES: C[C@]12CC[C@H]3[C@@H](CCC4=CC(=O)CC[C@@]43C)[C@@H]1CC[C@@H]2C(=O)O [3-oxoandrost-4-ene-17β-carboxylic acid]
- Block of the action of dihydrotestosterone on flank organ responses (steroid 5α-reductase [1]; castrated hamsters): did not, however, block
- Anti-androgenic activity by inhibitory effects on steroid 5α-reductase activity (steroid 5α-reductase [1]): exhibit anti-androgenic activity

SMILES: CC[C@]1(O)CC[C@H]2[C@@H]3CCC4=CC(=O)CC[C@]4(C)[C@H]3CC[C@@]21C [17α-ethylandrost-4-en-17β-ol-3-one]
- Systemic androgenic activity [2]: have systemic androgenic activity

SMILES: CCC[C@]1(OC=O)CC[C@H]2[C@@H]3CCC4=CC(=O)CC[C@]4(C)[C@H]3CC[C@@]21C [17β-Formyloxy-17α-(n-propyl)androst-4-en-3-one]
- Activity relative to the parent alcohol, by cholesterol content [3, 12]: about 40%
- Flank organ development (in words) [3, 12]: no effect
- Flank organ size (in words) [3, 12]: slightly reduced flank organ size
- Reduction of flank organ cholesterol content [3, 12]: 32%
- Reduction of flank organ wet weight [3, 12]: about 13%

SMILES: CCC[C@]1(O)CC[C@H]2[C@@H]3CCC4=CC(=O)CC[C@]4(C)[C@H]3CC[C@@]21C [Compd. I, 17α-(n-propyl)androst-4-en-17β -ol-3-one]
- Flank Organ Cholest., Mean ± S.E. [3, 13]: 162 ± 5.8 µg
- Flank Organ Diameter, Mean ± S.E. [3, 13]: 3.71±0.22 mm
- Flank Organ Wet Wgt, Mean ± S.E. [3, 13]: 28.5 ± 1.0 mg
- Flank Organ Cholest., Mean ± S.E. [3, 14]: 163 ± 9.4 µg
- Flank Organ Diameter, Mean ± S.E. [3, 14]: 3.91±0.14 mm
- Flank Organ Wet Wgt, Mean ± S.E. [3, 14]: 27.5 ± 1.3 mg
- Inhibition of testosterone-stimulated increase in the cholesterol contact of the flank organs (in words) ([3]; castrated hamsters): effective as inhibitors
- Reduction of testosterone-stimulated increase in flank organ diameter (in words) ([3]; castrated hamsters): effective
- Suppression of flank organ development, degree of pigmentation (in words) ([3]; castrated hamsters): effective in suppressing flank organ development
- Wet weight of the flank organs (in words) ([3]; castrated hamsters): reduced the wet weight of the flank organs below that recorded for the vehicle control
- Flank Organ Develop. (Med. Score) ([3]; 1 μg TP + 100 μg test compound): 3.5
- Flank Organ Develop. (Med. Score) ([3]; 1 μg TP + 200 μg test compound): 3.0
- Flank Organ Develop. (Med. Score) ([3]; 1 μg TP + 200 μg test compound, listed as Compound I): 3
- Endocr. Organ Wgts, Mean ± S.E.: Adrenal Gland [4, 15]: 12.1±0.32 Mg
- Endocr. Organ Wgts, Mean ± S.E.: Seminal Vesicle [4, 15]: 39.5±2.9 Mg
- Endocr. Organ Wgts, Mean ± S.E.: Thymus Gland [4, 15]: 58.3±6.7 Mg
- Endocr. Organ Wgts, Mean ± S.E.: Adrenal Gland [4, 16]: 11.6±0.48 Mg
- Endocr. Organ Wgts, Mean ± S.E.: Seminal Vesicle [4, 16]: 34.0±2.6 Mg
- Endocr. Organ Wgts, Mean ± S.E.: Thymus Gland [4, 16]: 43.5±4.9 Mg
- Weights of the endocrine organs (in words) [4]: not significantly altered
- Flank organ development [5]: caused a regression in flank organ development
- Seminal vesicle weights [5]: not reduced
- Size and lipid content of the sebaceous glands [5]: significantly reduced
- Inhibition of conversion of testosterone to dihydrotestosterone by steroid 5α-reductase (steroid 5α-reductase [6]; concentration one-hundredth molar): 100%
- Inhibition of conversion of testosterone to dihydrotestosterone by steroid 5α-reductase (steroid 5α-reductase [6]; concentration one-thousandth molar): 53%
- Androgenic, estrogenic or anabolic properties [7]: devoid of any significant androgenic, estrogenic or anabolic properties
- Progestational activity, Clauberg assay ([8]; 32 mg/kg applied topically): minimal progestational activity
- Progestational activity relative to that of progesterone ([8]; administered intramuscularly): about one-fortieth
- Serum testosterone levels compared with untreated controls [9]: unchanged
- LD50 [10, 17]: > 5000 mg/kg
- LD50 [10, 18]: > 1000 mg/kg
- LD50 [11, 17]: > 5000 mg/kg
- LD50 [11, 18]: > 1000 mg/kg

SMILES: CCCC[C@]1(O)CC[C@H]2[C@@H]3CCC4=CC(=O)CC[C@]4(C)[C@H]3CC[C@@]21C [Compd. II, 17α-(n-butyl)androst-4-en-17β -ol-3-one]
- Flank Organ Cholest., Mean ± S.E. [3, 14]: 151 ± 8.9 µg
- Flank Organ Diameter, Mean ± S.E. [3, 14]: 3.24±0.13 mm
- Flank Organ Wet Wgt, Mean ± S.E. [3, 14]: 21.6 ± 1.2 mg
- Inhibition of testosterone-stimulated increase in the cholesterol contact of the flank organs (in words) ([3]; castrated hamsters): effective as inhibitors
- Reduction of testosterone-stimulated increase in flank organ diameter (in words) ([3]; castrated hamsters): effective
- Suppression of flank organ development, degree of pigmentation (in words) ([3]; castrated hamsters): effective in suppressing flank organ development
- Wet weight of the flank organs (in words) ([3]; castrated hamsters): reduced the wet weight of the flank organs below that recorded for the vehicle control
- Flank Organ Develop. (Med. Score) ([3]; 1 μg TP + 200 μg test compound): 1.0
- Flank Organ Develop. (Med. Score) ([3]; 1 μg TP + 200 μg test compound, listed as Compound II): 1
- Endocr. Organ Wgts, Mean ± S.E.: Adrenal Gland [4, 16]: 12.4±0.53 Mg
- Endocr. Organ Wgts, Mean ± S.E.: Seminal Vesicle [4, 16]: 34.0±4.1 Mg
- Endocr. Organ Wgts, Mean ± S.E.: Thymus Gland [4, 16]: 60.7±7.6 Mg
- Weights of the endocrine organs (in words) [4]: not significantly altered

SMILES: C[C@]12CCC(=O)C=C1CC[C@@H]1[C@@H]2CC[C@@]2(C)[C@H]1CC[C@]2(C)O [Methyltestosterone]
- Systemic androgenic activity [2]: have systemic androgenic activity

SMILES: CCC(=O)O[C@H]1CC[C@H]2[C@@H]3CCC4=CC(=O)CC[C@]4(C)[C@H]3CC[C@]12C [TP, testosterone propionate, reference compound]
- Flank Organ Cholest., Mean ± S.E. [3, 19]: 238 ± 26 µg
- Flank Organ Diameter, Mean ± S.E. [3, 19]: 4.30±0.15 mm
- Flank Organ Wet Wgt, Mean ± S.E. [3, 19]: 42.0 ± 1.2 mg
- Flank Organ Develop. (Med. Score) ([3]; 1 μg TP alone): 4.0
- Endocr. Organ Wgts, Mean ± S.E.: Adrenal Gland ([4]; Group II: 1 μg TP alone): 11.8±0.81 Mg
- Endocr. Organ Wgts, Mean ± S.E.: Seminal Vesicle ([4]; Group II: 1 μg TP alone): 35.0±2.9 Mg
- Endocr. Organ Wgts, Mean ± S.E.: Thymus Gland ([4]; Group II: 1 μg TP alone): 55.2±6.5 Mg

SMILES: CC(=O)O[C@]1(C(C)=O)CC[C@H]2[C@@H]3C=C(Cl)C4=CC(=O)[C@@H]5C[C@@H]5[C@]4(C)[C@H]3CC[C@@]21C [cyproterone acetate, 6-chloro-1α , 2α-methylene-4,6-pregnadien-17α-o1-3,20-dione acetate]
- Effectiveness against acne or sebum secretion (acne or sebum secretion): not to be effective

SMILES: COC(=O)[C@H]1CC[C@H]2[C@@H]3CCC4=CC(=O)CC[C@]4(C)[C@H]3CC[C@]12C [methyl ester thereof]
- Anti-androgenic activity by inhibitory effects on steroid 5α-reductase activity (steroid 5α-reductase [1]): exhibit anti-androgenic activity

SMILES: CC(=O)[C@H]1CC[C@H]2[C@@H]3CCC4=CC(=O)CC[C@]4(C)[C@H]3CC[C@]12C [progesterone, reference compound]
- Progestational activity, Clauberg assay ([8]; 2 mg/kg applied topically): maximal response

From US4039669A, “Composition for topical application and use thereof” (Sterling Drug Inc., priority 1975, dated 1977)
